Results as given in PMC12929930, “Conformational Trajectory of the Molecular Chameleon Grazoprevir From Formulation to Target‐Bound” (Chemistry (Weinheim an Der Bergstrasse, Germany), 2025).
Where two headings read alike, the source gives them in different places.

What was measured:
[1] = cited from earlier work; for SA 3D PSA variation between solution conformations / spread in Rgyr for the solution ensembles: solution ensembles
Text: Grazoprevir (Figure 1a) is a second‐generation hepatitis C virus (HCV) nonstructural 3/4A (NS3/NS4A) protease inhibitor developed by Merck in 2012 and approved by the FDA in 2016 as part of an orally administered combination therapy with elbasvir. Like most NS3/NS4A protease inhibitors, grazoprevir is orally available despite its limited water solubility (Table S21). The potential chameleonicity of grazoprevir has not yet been structurally characterized. Determining the structures of bRo5 inhibitors like grazoprevir in various states is crucial for understanding their chame ... || For bRo5‐drugs, 3D descriptors such as the R gyr as a measure of size instead of molecular weight, and the SA 3D PSA instead of the number of hydrogen bond donors and acceptors, often provide a better view to explain their aqueous solubility and membrane permeability. Even though the exact values of the R gyr and SA 3D PSA for a single conformation might not be informative, they can give a perspective when compared for conformations between solvents or between similar compounds [6, 23]. In solution the SA 3D PSA varies by 79 Å^2 (Supporting information Figure S13) between the c ...

MCDCK cell monolayers [2] = settings: comparison value quoted in Conclusions; not in the printed Table S21; cited from earlier work
Text: This study presents a comprehensive analysis of a macrocyclic drug's conformational journey by experimental means; from the solid state, through solution environments, to the target‐bound state. […] By determining solution‐state ensembles of grazoprevir in both polar and apolar environments—mimicking extracellular and membrane‐like conditions—and comparing these to previously repo ...

[3] = type: physicochemical; settings: pH 7.4
Text: (§1) Solubility and Cell permeability
(§2) The thermodynamic aqueous solubility, LogD and cell permeability across MCDCK cell monolayers
(§3) Table S21. MCDCK permeability data and efflux ratios (ERs) for grazoprevir.
Solubility LogD7.4[b] PappAB (x10-6 ER[d] […]
[b] Determined using a miniaturized shake-flask procedure. Values are means from three repeats. […]

MCDCK cell monolayers [4] = type: in vitro ADME
Text: as §1, §2, §3
(§4) Solubility LogD7.4[b] PappAB (x10-6 ER[d]
[a] Determined in aqueous potassium phosphate buffer at pH 7.4. Values are means ± std from three repeats.
[b] Determined using a miniaturized shake-flask procedure. Values are means from three repeats.
[c] Papp AB: permeability in the apical-to-basolateral (AB) direction across MCDCK cell monolayers. Values are
means + std from three repeats.
[d] ER: efflux ratio (Papp BA/Papp AB).

[5] = type: physicochemical; settings: pH 7.4; remark: listed apart in the source
Text: as §1, §2, §3, §4
[a] Determined in aqueous potassium phosphate buffer at pH 7.4. Values are means ± std from three repeats. […]

[6] = conformations assessed computationally

C=C[C@@H]1C[C@]1(NC(=O)[C@@H]1C[C@@H](Oc2ncc(OC)c3ccc(Cl)cc23)CN1C(=O)[C@@H](NC(=O)OC(C)(C)C)C(C)(C)C)C(=O)NS(=O)(=O)C1CC1 [asunaprevir]
SA 3D PSA variation between solution conformations [1]: 88 Å^2 | spread in Rgyr for the solution ensembles [1]: 1.22 Å

COc1ccc2c(O[C@@H]3C[C@H]4C(=O)N[C@]5(C(=O)NS(=O)(=O)C6CC6)C[C@H]5/C=C\CCCCN(C)C(=O)[C@@H]4C3)cc(-c3nc(C(C)C)cs3)nc2c1C [simeprevir]
passive membrane permeability (MCDCK cell monolayers [2]): 5e-07 cm/s | SA 3D PSA variation between solution conformations [1]: 72 Å^2 | spread in Rgyr for the solution ensembles [1]: 1.11 Å

Cc1cnc(C(=O)N[C@H]2CCCCC/C=C\[C@@H]3C[C@@]3(C(=O)NS(=O)(=O)C3CC3)NC(=O)[C@@H]3C[C@@H](Oc4nc5ccccc5c5ccccc45)CN3C2=O)cn1 [paritaprevir]
Rgyr range for the solution conformations (polar-to-apolar span) [1, 6]: 0.36 Å | SA 3D PSA polar-to-apolar span [1, 6]: 76 Å^2

C=C[C@@H]1C[C@]1(NC(=O)[C@@H]1C[C@@H]2CN1C(=O)[C@H](C(C)(C)C)NC(=O)O[C@@H]1C[C@H]1CCCCCc1nc3ccc(OC)cc3nc1O2)C(=O)NS(=O)(=O)C1CC1.O [grazoprevir, Grazoprevir]
LogD7.4 [3]: 3.4 | ER (efflux ratio, Papp BA/Papp AB) (MCDCK cell monolayers [4]): 3.1 | PappAB (MCDCK cell monolayers [4]): 5.9 ± 0.89 x10-6 cm/s | passive membrane permeability (MCDCK cell monolayers [4]): 5.9e-06 cm/s | Solubility [5]: 12.9 ± 2.6 µM
